For orientation: IC50 means the point on the concentration scale where inhibition reaches its midpoint. The inhibition is the change of the read-out against control, counted positive when it falls.

From paper PMC4384654 (ChemMedChem, 2014) come the findings set out here.

The target in experiment [1] is T1, FAAH prepared from rat brain homogenates (Rattus norvegicus, UniProt P97612).
T1 sequence (P97612 1-579): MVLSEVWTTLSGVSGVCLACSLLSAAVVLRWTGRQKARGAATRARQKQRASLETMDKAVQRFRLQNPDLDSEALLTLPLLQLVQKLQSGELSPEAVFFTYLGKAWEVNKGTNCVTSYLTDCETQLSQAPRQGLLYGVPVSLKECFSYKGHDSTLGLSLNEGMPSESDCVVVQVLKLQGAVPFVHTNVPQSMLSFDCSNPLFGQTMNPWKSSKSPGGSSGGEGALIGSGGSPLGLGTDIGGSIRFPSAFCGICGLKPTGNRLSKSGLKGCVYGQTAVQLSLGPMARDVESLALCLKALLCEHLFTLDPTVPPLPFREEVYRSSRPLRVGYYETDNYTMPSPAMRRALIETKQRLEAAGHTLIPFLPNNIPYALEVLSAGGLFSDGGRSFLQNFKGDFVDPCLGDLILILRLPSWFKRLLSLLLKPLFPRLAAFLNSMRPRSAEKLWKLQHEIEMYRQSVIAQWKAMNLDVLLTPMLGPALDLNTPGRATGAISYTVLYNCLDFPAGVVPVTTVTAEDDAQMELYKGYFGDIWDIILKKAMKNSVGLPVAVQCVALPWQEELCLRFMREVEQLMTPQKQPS
Kind of experiment: In vitro rat FAAH radiometric assay. The experiment is classed as biochemical. The settings on record: for IC50: read-out: r-FAAH IC50; for IC50 / % inhibition of FAAH activity at 100 μM: rat brain homogenate; for Increase in potency vs 34a: relative to 34a.

Another experiment concerns the target T2, human FAAH-1 (Homo sapiens, UniProt O00519).
T2 sequence (O00519 1-579): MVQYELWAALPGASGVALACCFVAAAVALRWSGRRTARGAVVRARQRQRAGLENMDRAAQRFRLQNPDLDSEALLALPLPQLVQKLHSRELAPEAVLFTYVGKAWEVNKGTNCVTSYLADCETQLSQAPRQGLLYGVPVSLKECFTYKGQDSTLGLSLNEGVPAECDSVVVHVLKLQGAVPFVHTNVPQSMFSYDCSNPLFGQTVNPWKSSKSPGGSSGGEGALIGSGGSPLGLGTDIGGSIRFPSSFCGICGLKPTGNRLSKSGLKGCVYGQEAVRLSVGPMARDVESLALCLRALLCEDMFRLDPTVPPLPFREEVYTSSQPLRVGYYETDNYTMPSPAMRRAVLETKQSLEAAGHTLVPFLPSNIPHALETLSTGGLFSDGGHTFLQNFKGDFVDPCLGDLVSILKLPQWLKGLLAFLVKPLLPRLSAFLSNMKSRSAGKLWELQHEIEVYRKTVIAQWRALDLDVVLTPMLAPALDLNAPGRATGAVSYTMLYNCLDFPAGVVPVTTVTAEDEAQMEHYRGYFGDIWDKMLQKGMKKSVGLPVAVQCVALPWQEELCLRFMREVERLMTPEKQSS
Kind of experiment: In vitro human FAAH fluorescent assay. Format: biochemical. Particulars: h-FAAH-1 IC50 relative to r-FAAH IC50.

Values joined by “and” are separate entries in the source; they are usually repeats but may differ in a detail not shown here. Identical values can stand only once. Like-named read-outs stand apart in the source and are kept apart here.

As to `O=C(NC1CCCCC1)OCc1cn(Cc2ccccc2)nn1` [Compound 18, (1-benzyltriazol-4-yl)methyl N-cyclohexylcarbamate], the “Less potent than 1a (URB524)” value in experiment [1] (r-FAAH, relative to 1a) is 4.6 fold. The “Increase in potency vs compound 17” value in experiment [1] (r-FAAH, relative to 17) is recorded as “ca. 15 fold”. Besides, the IC50 in experiment [1] (mean ± SEM (n=3)) is 26 nM and 26.2 nM.
In the case of `O=C(NC1CCCCC1)OCc1ncn(-c2ccccc2)n1` [Compound 43], in experiment [1], the “% inhibition of FAAH activity at 100 μM” value came out at 70% @ 100 μM.
As to `COc1cccc(Cn2cc(COC(=O)NCc3cn(Cc4ccccc4OC)nn3)nn2)c1` [Compound 39, [1-[(3-methoxyphenyl)methyl]triazol-4-yl]methyl N-[[1-[(2-methoxyphenyl)methyl]triazol-4-yl]methyl]carbamate], the “Loss of potency on h-FAAH-1 vs r-FAAH” value at human FAAH-1 was in the range of 4 to 10 fold. In experiment [1] (r-FAAH), the “Increase in potency vs 34a” value was “ca. 15 fold”. The IC50 in experiment [1] (mean ± SEM (n=3)) came out at 9.8 ± 0.4 nM.
Consider `O=C(NC1CCCCC1)OCc1cn(Cc2cccc(Cl)c2)nn1` [Compound 24b, [1-[(3-chlorophenyl)methyl]triazol-4-yl]methyl N-cyclohexylcarbamate], for which the half-maximal inhibitory concentration (IC50) in experiment [1] (mean ± SEM (n=3)) amounted to 13.2 ± 2.8 nM.
Still for that read-out and setting: next, `Cc1ccccc1Cn1cc(COC(=O)NC2CCCCC2)nn1` [Compound 25a, [1-(o-tolylmethyl)triazol-4-yl]methyl N-cyclohexylcarbamate]: 21.5 ± 1.2 nM; `COc1ccc(Cn2cc(COC(=O)NC3CCCCC3)nn2)cc1` [Compound 26c, [1-[(4-methoxyphenyl)methyl]triazol-4-yl]methyl N-cyclohexylcarbamate]: 627 ± 173 nM.
On the same count and under the same terms, the figure for `Cc1ccc(Cn2cc(COC(=O)NC3CCCCC3)nn2)cc1` [Compound 25c, [1-(p-tolylmethyl)triazol-4-yl]methyl N-cyclohexylcarbamate] is 500 ± 44 nM; for `O=C(NC1CCCCC1)OCc1cn(Cc2c(F)cccc2F)nn1` [Compound 28, [1-[(2,6-difluorophenyl)methyl]triazol-4-yl]methyl N-cyclohexylcarbamate] it is 11.9 ± 1 nM.
Same read-out and setting: next, `O=C(NC1CCCCC1)OCc1cn(Cc2cc(F)cc(F)c2)nn1` [Compound 29, [1-[(3,5-difluorophenyl)methyl]triazol-4-yl]methyl N-cyclohexylcarbamate]: 10.4 ± 2.6 nM.
For the compound `Cc1cccc(Cn2cc(COC(=O)NC3CCCCC3)nn2)c1` [Compound 25b, [1-(m-tolylmethyl)triazol-4-yl]methyl N-cyclohexylcarbamate], the IC50 in experiment [1] (mean ± SEM (n=3)) is 24.5 ± 6.2 nM.
Regarding `O=C(NC1CCCCC1)OCc1cn(Cc2ccccc2F)nn1` [Compound 23a, [1-[(2-fluorophenyl)methyl]triazol-4-yl]methyl N-cyclohexylcarbamate], the “Loss of potency on h-FAAH-1 vs r-FAAH” value at human FAAH-1 is on record as 62 fold. In addition, the IC50 in experiment [1] (mean ± SEM (n=3)) came out at 9.9 ± 1.9 nM.
For `O=C(NC1CCCCC1)OCc1cn(Cc2cccc(F)c2)nn1` [Compound 23b, [1-[(3-fluorophenyl)methyl]triazol-4-yl]methyl N-cyclohexylcarbamate], the IC50 in experiment [1] (mean ± SEM (n=3)) amounted to 12.1 ± 0.8 nM.
With `O=C(NC1CCCCC1)OCc1cn(Cc2ccc(Cl)cc2)nn1` [Compound 24c, [1-[(4-chlorophenyl)methyl]triazol-4-yl]methyl N-cyclohexylcarbamate], the IC50 in experiment [1] (mean ± SEM (n=3)) stood at 215 ± 31 nM.
Turning to `COc1ccccc1Cn1cc(COC(=O)NC2CCCCC2)nn1` [Compound 26a, [1-[(2-methoxyphenyl)methyl]triazol-4-yl]methyl N-cyclohexylcarbamate], the “Loss of potency on h-FAAH-1 vs r-FAAH” value at human FAAH-1 was 240 fold. Further, the IC50 in experiment [1] (mean ± SEM (n=3)) came to 1.4 ± 0.2 nM.
Consider `O=C(NC1CCCCC1)OCc1cccc(-c2ccccc2)c1` [Compound 4, (3-phenylphenyl)methyl N-cyclohexylcarbamate], for which the inhibition at 100 µM in experiment [1] (read-out: % inhibition of FAAH activity at 100 μM) worked out at 65%.
As for `COc1cccc(Cn2cc(CNC(=O)OCc3cn(Cc4ccccc4OC)nn3)nn2)c1` [Compound 37, [1-[(2-methoxyphenyl)methyl]triazol-4-yl]methyl N-[[1-[(3-methoxyphenyl)methyl]triazol-4-yl]methyl]carbamate], the “Loss of potency on h-FAAH-1 vs r-FAAH” value at human FAAH-1 is given as 4 to 10 fold. The “Increase in potency vs 34a” value in experiment [1] (r-FAAH) was found to be 48 fold. Further, the IC50 in experiment [1] (mean ± SEM (n=3)) came out at 3.2 ± 1.2 nM.
Turning to `O=C(NC1CCCCC1)OCc1cn(CCc2ccccc2)nn1` [Compound 19, (1-phenethyltriazol-4-yl)methyl N-cyclohexylcarbamate], in experiment [1] (mean ± SEM (n=3)), the IC50 was 833 ± 129 nM.
For the compound `O=C(NC1CCCCC1)OCc1cn(Cc2ccc3ccccc3c2)nn1` [Compound 21, [1-(2-naphthylmethyl)triazol-4-yl]methyl N-cyclohexylcarbamate], the IC50 in experiment [1] is 2000 nM; in experiment [1] (mean ± SEM (n=3)) it was 2000 ± 636 nM.
As for `N#Cc1ccc(Cn2cc(COC(=O)NC3CCCCC3)nn2)cc1` [Compound 22c, [1-[(4-cyanophenyl)methyl]triazol-4-yl]methyl N-cyclohexylcarbamate], the IC50 in experiment [1] (mean ± SEM (n=3)) turned out to be 2280 ± 585 nM.
For `O=C(NC1CCCCC1)OCc1cn(C(c2ccccc2)c2ccccc2)nn1` [Compound 20, (1-benzhydryltriazol-4-yl)methyl N-cyclohexylcarbamate], the “% inhibition of FAAH activity at 100 μM” value in experiment [1] was determined as 73% @ 100 μM.
For `O=C(NC1CCCCC1)OCc1ncn(Cc2ccccc2)n1` [Compound 46], the IC50 in experiment [1] (mean ± SEM (n=3)) came to 51500 ± 1120 nM.
As for `N#Cc1cccc(Cn2cc(COC(=O)NC3CCCCC3)nn2)c1` [Compound 22b, [1-[(3-cyanophenyl)methyl]triazol-4-yl]methyl N-cyclohexylcarbamate], the IC50 in experiment [1] (mean ± SEM (n=3)) came to 21.5 ± 7.9 nM.
Still for that read-out and setting: next, `O=C(NC1CCCCC1)OCc1cn(Cc2ccc(F)cc2)nn1` [Compound 23c, [1-[(4-fluorophenyl)methyl]triazol-4-yl]methyl N-cyclohexylcarbamate]: 95.5 ± 22.2 nM.
In the case of `O=C(NC1CCCCC1)OCc1cn(Cc2ccccc2Cl)nn1` [Compound 24a, [1-[(2-chlorophenyl)methyl]triazol-4-yl]methyl N-cyclohexylcarbamate], the “Loss of potency on h-FAAH-1 vs r-FAAH” value at human FAAH-1 amounted to 172 fold. Also, in experiment [1] (mean ± SEM (n=3)), the half-maximal inhibitory concentration (IC50) worked out at 6.2 ± 1.3 nM.
For `COc1ccccc1Cn1cc(CNC(=O)OCc2cn(Cc3ccccc3OC)nn2)nn1` [Compound 34a, [1-[(2-methoxyphenyl)methyl]triazol-4-yl]methyl N-[[1-[(2-methoxyphenyl)methyl]triazol-4-yl]methyl]carbamate], the IC50 in experiment [1] (mean ± SEM (n=3)) came out at 154 ± 14 nM.
In the case of `O=C(NC1CCCCC1)OCCc1cn(-c2ccccc2)nn1` [Compound 32, 2-(1-phenyltriazol-4-yl)ethyl N-cyclohexylcarbamate], in experiment [1] (r-FAAH, relative to 17), the “Decrease in potency vs compound 17” value is reported as “ca. 3 fold”. Besides, the IC50 in experiment [1] (mean ± SEM (n=3)) was determined as 1280 ± 84 nM.
`COc1ccc(Cn2cc(CNC(=O)OCc3cn(Cc4ccccc4OC)nn3)nn2)cc1` [Compound 38, [1-[(2-methoxyphenyl)methyl]triazol-4-yl]methyl N-[[1-[(4-methoxyphenyl)methyl]triazol-4-yl]methyl]carbamate]: the “Loss of potency on h-FAAH-1 vs r-FAAH” value on human FAAH-1 fell in the range of 4 to 10 fold. In addition, the IC50 in experiment [1] (mean ± SEM (n=3)) was found to be 7.6 ± 0.6 nM.
Take `O=C(NC1CCCCC1)OCCc1cn(Cc2ccccc2)nn1` [Compound 33, 2-(1-benzyltriazol-4-yl)ethyl N-cyclohexylcarbamate]: in experiment [1] (mean ± SEM (n=3)), the IC50 was 2540 ± 106 nM.
The same measure, in the same setting: the figure for `COc1cccc(Cn2cc(COC(=O)NC3CCCCC3)nn2)c1` [Compound 26b, [1-[(3-methoxyphenyl)methyl]triazol-4-yl]methyl N-cyclohexylcarbamate] is 11.8 ± 3.7 nM.
Still for that read-out and setting: the figure for `COc1cccc(Cn2cc(COC(=O)NC3CCCCC3)nn2)c1F` [Compound 30, [1-[(2-fluoro-3-methoxy-phenyl)methyl]triazol-4-yl]methyl N-cyclohexylcarbamate] is 44.6 ± 10.3 nM; for `N#Cc1ccccc1Cn1cc(COC(=O)NC2CCCCC2)nn1` [Compound 22a, [1-[(2-cyanophenyl)methyl]triazol-4-yl]methyl N-cyclohexylcarbamate] it is 19.5 ± 4.3 nM.
Same read-out and setting: next, `O=C(NC1CCCCC1)OCc1cn(-c2ccccc2)nn1` [Compound 17, (1-phenyltriazol-4-yl)methyl N-cyclohexylcarbamate]: 381 nM.
